The values below come from patent US20250127766A1, “METHODS AND COMPOSITIONS FOR TREATING CDKL5 DISORDER USING MONOAMINE OXIDASE INHIBITORS” (priority 2023, published 2025).

Each structure is given as a SMILES string.

For assay [1], the system named is seizures in animal models. Particulars: cited from earlier work.
The target of assay [2] is T1, MAO-B (Homo sapiens, UniProt P27338).
T1 sequence (P27338 1-520): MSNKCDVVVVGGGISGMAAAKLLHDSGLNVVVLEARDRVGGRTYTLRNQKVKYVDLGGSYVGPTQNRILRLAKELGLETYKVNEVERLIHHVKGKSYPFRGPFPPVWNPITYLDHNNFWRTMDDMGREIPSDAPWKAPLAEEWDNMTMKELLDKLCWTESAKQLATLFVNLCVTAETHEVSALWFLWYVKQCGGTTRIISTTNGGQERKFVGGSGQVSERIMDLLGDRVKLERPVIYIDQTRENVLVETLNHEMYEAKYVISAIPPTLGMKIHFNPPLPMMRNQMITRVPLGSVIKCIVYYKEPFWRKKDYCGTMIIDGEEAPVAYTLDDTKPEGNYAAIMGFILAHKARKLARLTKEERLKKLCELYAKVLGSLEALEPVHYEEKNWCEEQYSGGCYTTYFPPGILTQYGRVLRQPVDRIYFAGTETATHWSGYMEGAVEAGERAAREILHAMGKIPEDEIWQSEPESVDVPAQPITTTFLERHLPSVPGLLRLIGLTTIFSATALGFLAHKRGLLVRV
Description: MAO-B inhibitory activity. It is filed as biochemical. The text has this:
Though its MAO-B inhibitory activity is not as potent as that of other compounds such as safinamide, its ability to mildly modulate neurotransmitter levels, particularly dopamine and serotonin, may be beneficial in improving synaptic communication in CDD. In addition to its interaction with the monoamine pathways, liquiritin's anti-inflammatory properties may aid in reducing the neuroinflammation often observed in CDKL5-deficient patients. By targeting both neurotransmitter regulation and inflammatory processes, liquiritin offers a dual mechanism that may be effective in restoring synaptic balance.

The test system of assay [3] is oxidative damage of neurons. Particulars: cited from earlier work.
The subject of assay [4] is EB2 phosphorylation. Description: EB2 phosphorylation in CDKL5 knockout (KO) mouse model. It is filed as in vivo. Particulars: knockout (KO) male and Het female mice; compared with vehicle (drinking water). On the procedure:
In this context, EB2 phosphorylation acts as a functional molecular readout for the disease-modifying potential of small molecules, such as monoamine oxidase inhibitors (MAO-Is). When studying the efficacy of potential therapies for CDD, the measurement of EB2 phosphorylation levels can provide insight into whether the treatment is capable of compensating for the dysfunctional CDKL5 protein.
To evaluate the impact of MAO-Is on EB2 phosphorylation, an in vivo study was conducted using a well-established CDKL5 knockout (KO) mouse model, specifically the B6.129(FVB)-Cdk15tm1.1Joez/J strain from Jackson Laboratories. […] These mice provide a relevant model for testing how pharmacological agents such as MAO-Is can modulate neuronal activity and potentially restore normal function in the absence of CDKL5.
The increase in EB2 phosphorylation in these models provides compelling evidence that MAO-Is offer a disease-modifying therapeutic approach for patients with CDKL5 deficiency disorder, by targeting key molecular pathways involved in synaptic transmission and brain development.

Assay [5] relates to CDKL5 knockout mice. Nature of the assay: In vivo studies in CDKL5 knockout mice: synaptic transmission and neuronal connectivity. On the procedure:
This dosing regimen may serve as a reference point for establishing human doses. Extrapolating from these animal models, an initial dosing range for children of 1 to 2 mg/kg per day. This range can be adjusted depending on the individual's size and response, with a narrower range of 1.5 to 2 mg/kg per day for more precise dosing or even tighter to 1.75 to 2 mg/kg per day in specific cases. For broader clinical flexibility, a starting range of 0.5 to 3 mg/kg per day might be considered for pediatric populations, with adjustments based on individual tolerance and therapeutic outcomes.
In in vivo studies, animal models of neurodevelopmental disorders, including CDKL5 knockout mice, have been treated with liquiritin to assess its impact on synaptic transmission and neuronal connectivity.

The test system of assay [6] is microglial cells. Nature of the assay: Microglial activity. From the text:
This activation is associated with the release of proinflammatory cytokines, which promote neuroinflammatory processes.

Assay [7] deals with T2, DYRK1A (Homo sapiens, UniProt Q13627).
T2 construct: endogenous in cells; host or cells: CDKL5-deficient organoids
Nature of the assay: DYRK1A activity in harmine-treated organoids. It is filed as cell-based. From the text: DYRK1A is a kinase that adds phosphate groups to proteins, thereby regulating their function. In CDKL5 deficiency, the lack of CDKL5-mediated regulation leads to overactivation of DYRK1A, resulting in dysregulated synaptic signaling and impaired neuronal communication. Harmine, by selectively inhibiting DYRK1A, restores the phosphorylation balance at the synapse, preventing over-phosphorylation of critical synaptic proteins. This modulation of synaptic signaling pathways by harmine contributes to the restoration of neuronal connectivity and the normalization of network activity in the treated organoids.

Assay [8] deals with GABA receptor. Particulars: in vitro; cited from earlier work.
Assay [9] relates to proinflammatory cytokines and chemokines. Nature of the assay: Production and release of proinflammatory cytokines and chemokines.
The test system of assay [10] is CDKL5-deficient organoids. Nature of the assay: Network activity of organoids derived from patient iPSCs. Particulars: CDKL5-deficient organoids treated with harmine. The class given is cell-based, human. On the procedure: Another set of experiments was conducted using organoids derived from patient-induced pluripotent stem cells (iPSCs). Organoids are three-dimensional structures created from stem cells that closely resemble specific organs or tissues in terms of cellular composition, architecture, and function. These structures are widely used in biomedical research because they replicate the complexity of real organs, including their multiple cell types, tissue-specific structures, and the functions of the organ being modeled. In this study, organoids were generated to mimic the neuronal network of patients with CDKL5 deficiency disorder (CDD), providing a model system to explore the underlying mechanisms of the disorder and test potential therapeutic approaches.
Increased network excitability refers to an overactive state where neurons fire excessively, a characteristic associated with the seizure activity observed in CDD patients. Altered synchrony in the neuronal network reflects disrupted communication between neurons, contributing to cognitive impairments.

With `C[C@H](NCc1ccc(OCc2cccc(F)c2)cc1)C(N)=O` [safinamide], the anticonvulsant properties result in assay [1] was “suppress seizures and provide neuroprotective effects”.

In the case of `O=C1C[C@@H](c2ccc(O[C@@H]3O[C@H](CO)[C@@H](O)[C@H](O)[C@H]3O)cc2)Oc2cc(O)ccc21` [liquiritin], the MAO-B inhibitory activity result in assay [2] is reported as “weak MAO-B inhibitor”. Besides, the antioxidant activity entry in assay [3] is listed as “demonstrated antioxidant activity”. The EB2 phosphorylation levels result in [4] is given as “effective in increasing EB2 phosphorylation levels”. Besides, the synaptic function entry in [5] (animal models including CDKL5 knockout mice) was “moderate improvements in synaptic function”.

With `COc1ccc2c(c1)[nH]c1c(C)nccc12` [harmine], the “microglial activity (overactivation)” value in assay [6] was “reducing their overactivation”. The DYRK1A activity result in assay [7] is “modulation of DYRK1A activity”. The GABA receptor activity entry in assay [8] is given as “increases GABA receptor activity”. Further, the “production and release of proinflammatory cytokines and chemokines” value in [9] is “inhibits the production and release of proinflammatory cytokines and chemokines”. Besides, in assay [10], the burst firing patterns entry is “normalized the burst firing patterns”, the network excitability entry is “reduced network excitability” and the neuronal synchrony entry is given as “improved neuronal synchrony”. The “efficacy of the dosing regimen” value in assay [5] (30 mg/kg intraperitoneally, 5 days on, 2 days off, another 5-day cycle) is on record as “has shown efficacy”. In [5] (CDKL5 knockout mice), the neurological outcomes is listed as “improved neurological outcomes”; the “synaptic transmission and neuronal connectivity” value was “significant improvements in synaptic transmission and neuronal connectivity”.
